Test results from patent US20240293360A1 (priority 2021, published 2024).

Tested on: cancer cell lines HCT-116, SCC VII, and A549
Type: cell-based

Structure (SMILES): O=C(CBr)N1CC([N+](=O)[O-])([N+](=O)[O-])C1 [Sample 2, 2-bromo-1-(3,3-dinitroazetidin-1-yl)ethanone]
- suppressing viability of cancer cell lines, compared to impact sensitive form of ABDNAZ (samples 1 and 3): more effective
